In ChEMBL document CHEMBL1137327, “Optimization of chromone-2-carboxamide melanin concentrating hormone receptor 1 antagonists: assessment of potency, efficacy, and cardiovascular safety” (J Med Chem, 2006):

Assays:
[1] = molecular target: T1, Melanin-concentrating hormone receptor 1 (Homo sapiens, UniProt Q99705); test: Displacement of [125I]MCH from MCHr1 expressed in IMR32 cells; format: cell-based, IMR-32
[2] = molecular target: T1, Melanin-concentrating hormone receptor 1; test: Antagonist activity at MCHr1 assessed as inhibition of MCH-mediated calcium ion release in intact IMR32 cells by FLIPR assay; format: functional, cell-based, IMR-32
[3] = test system: Rattus norvegicus; test: Drug level in anesthetized Sprague-Dawley rat brain; format: ADME, organism-based; conditions: in vivo
[4] = test system: Rattus norvegicus; test: Drug level in anesthetized Sprague-Dawley rat plasma; format: ADME, organism-based; conditions: in vivo
[5] = test system: Rattus norvegicus; test: Decrease in heart rate in anesthetized Sprague-Dawley rat at 60 mg/kg; format: functional; set-up: scale not given: the % may be the effect or the level left
[6] = test system: Rattus norvegicus; test: Decrease in mean arterial pressure in anesthetized Sprague-Dawley rat at 60 mg/kg; format: functional, Artery; set-up: scale not given: the % may be the effect or the level left

T1 sequence (Q99705 whole entry): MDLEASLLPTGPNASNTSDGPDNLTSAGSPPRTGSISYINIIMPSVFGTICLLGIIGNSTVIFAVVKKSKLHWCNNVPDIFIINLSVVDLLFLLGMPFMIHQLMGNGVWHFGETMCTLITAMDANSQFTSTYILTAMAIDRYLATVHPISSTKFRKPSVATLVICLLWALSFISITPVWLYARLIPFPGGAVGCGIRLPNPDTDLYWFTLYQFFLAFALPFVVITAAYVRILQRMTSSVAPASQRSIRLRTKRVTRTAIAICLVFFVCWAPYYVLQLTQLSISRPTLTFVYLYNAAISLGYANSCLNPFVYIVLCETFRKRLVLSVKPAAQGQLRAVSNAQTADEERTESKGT

SMILES	IC50 [1] [nM]	IC50 [2] [nM]	further results
O=C(NC1CCN(Cc2ccc3c(c2)OCO3)CC1)c1cc(=O)c2cc(F)c(F)c(F)c2o1	91	418	
Cc1ccc2oc(C(=O)NC3CCN(Cc4ccc5c(c4)OCO5)CC3)cc(=O)c2c1	393		
COc1ccc(CN2CCC(NC(=O)c3cc(=O)c4ccc(F)cc4o3)CC2)cc1OC	427		
O=C(NC1CCN(Cc2ccc3c(c2)OCO3)CC1)c1cc(=O)c2ccc(Br)cc2o1	32	82	
O=C(NC1CCN(Cc2ccc3c(c2)OCCO3)CC1)c1cc(=O)c2ccc(F)cc2o1	73	171	
O=C(NC1CCN(Cc2ccc(F)cc2)CC1)c1cc(=O)c2ccc(F)cc2o1	159	789	
O=C(NC1CCN(Cc2ccc3c(c2)OCO3)CC1)c1cc(=O)c2cc(F)cc(F)c2o1	99	2720	
O=C(NC1CCN(Cc2ccc3c(c2)OCO3)CC1)c1cc(=O)c2cc(C(F)(F)F)ccc2o1	351		
COc1ccc2c(=O)cc(C(=O)NCC3CCN(Cc4ccc5c(c4)OCO5)C3)oc2c1 (stereo not drawn)	1140	8300	
N#Cc1ccc2c(=O)cc(C(=O)NC3CCN(Cc4ccc5c(c4)OCO5)CC3)oc2c1	47	137	
O=C(NC1CCN(Cc2ccc3c(c2)OCO3)CC1)c1cc(=O)c2ccccc2o1	66	192	
COc1cc2oc(C(=O)NC3CCN(Cc4ccc5c(c4)OCO5)CC3)cc(=O)c2cc1F	2	16	Drug uptake [3]: 149 µg/g; Cp [4]: 105 µg/mL; Activity [5]: <15%; Activity [6]: 15.3%
COc1ccc2c(=O)cc(C(=O)NC3CCC(CNCc4ccc5c(c4)OCO5)CC3)oc2c1 (stereo not drawn)	> 2000		
O=C(NC1CCN(Cc2ccc3c(c2)OCO3)CC1)c1cc(=O)c2cc(F)c(F)cc2o1	2	13	Drug uptake [3]: 25 µg/g; Cp [4]: 34 µg/mL; Activity [6]: >15%
Cc1c(C(=O)NC2CCN(Cc3ccc4c(c3)OCO4)CC2)oc2cc(Cl)ccc2c1=O	2	67	
O=C(NC1CCN(Cc2ccc3c(c2)OCO3)CC1)c1cc(=O)c2cc(F)c(Cl)cc2o1	3	71	
O=C(NC1CCN(Cc2ccc3c(c2)OCO3)CC1)c1cc(=O)c2c(Cl)c(Cl)ccc2o1	75	4750	
COc1ccc2c(=O)cc(C(=O)NC3CCCN(Cc4ccc5c(c4)OCO5)C3)oc2c1 (stereo not drawn)	> 2000		
O=C(NC1CCN(Cc2ccccc2)CC1)c1cc(=O)c2ccc(F)cc2o1	60	592	
O=C(NC1CCN(Cc2ccc3c(c2)OCO3)CC1)c1cc(=O)c2cc(Br)ccc2o1	187	> 6000	
CCc1ccc2c(=O)cc(C(=O)NC3CCN(Cc4ccc5c(c4)OCO5)CC3)oc2c1	59	529	
O=C(NC1CCN(Cc2ccc3c(c2)OCO3)CC1)c1cc(=O)c2c(Cl)cccc2o1	24	> 10000	
O=C(NC1CCN(Cc2ccc3c(c2)OCO3)CC1)c1cc(=O)c2cc(OC(F)(F)F)ccc2o1	132	> 9000	
